This is an account of results in patent publication US20230106032A1, “IMIDAZOTRIAZINES ACTING ON CANCER VIA INHIBITION OF CDK12” (Bayer Aktiengesellschaft, priority 2020, published 2023).

Structures are written as SMILES. Some results are limits rather than exact numbers.

The target in test [1] is T1, CDK9/CycT1 (Homo sapiens, UniProt P50750).
T1 construct: Recombinant full-length His-tagged human CDK9 and CycT1, expressed in insect cells; His; purchased Life Technologies PV4131; host or cells: insect cells
T1 sequence (P50750 whole entry): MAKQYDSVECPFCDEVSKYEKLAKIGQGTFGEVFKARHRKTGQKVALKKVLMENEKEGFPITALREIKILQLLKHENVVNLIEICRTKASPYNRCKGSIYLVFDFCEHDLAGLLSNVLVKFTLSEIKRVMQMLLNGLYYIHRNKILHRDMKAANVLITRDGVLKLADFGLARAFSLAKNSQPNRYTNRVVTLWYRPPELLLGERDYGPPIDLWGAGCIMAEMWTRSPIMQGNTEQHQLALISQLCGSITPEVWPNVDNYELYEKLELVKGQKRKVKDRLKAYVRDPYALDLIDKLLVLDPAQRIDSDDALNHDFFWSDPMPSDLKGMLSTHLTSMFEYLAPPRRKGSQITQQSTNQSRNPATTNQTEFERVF
T1 sequence (O60563 whole entry partner): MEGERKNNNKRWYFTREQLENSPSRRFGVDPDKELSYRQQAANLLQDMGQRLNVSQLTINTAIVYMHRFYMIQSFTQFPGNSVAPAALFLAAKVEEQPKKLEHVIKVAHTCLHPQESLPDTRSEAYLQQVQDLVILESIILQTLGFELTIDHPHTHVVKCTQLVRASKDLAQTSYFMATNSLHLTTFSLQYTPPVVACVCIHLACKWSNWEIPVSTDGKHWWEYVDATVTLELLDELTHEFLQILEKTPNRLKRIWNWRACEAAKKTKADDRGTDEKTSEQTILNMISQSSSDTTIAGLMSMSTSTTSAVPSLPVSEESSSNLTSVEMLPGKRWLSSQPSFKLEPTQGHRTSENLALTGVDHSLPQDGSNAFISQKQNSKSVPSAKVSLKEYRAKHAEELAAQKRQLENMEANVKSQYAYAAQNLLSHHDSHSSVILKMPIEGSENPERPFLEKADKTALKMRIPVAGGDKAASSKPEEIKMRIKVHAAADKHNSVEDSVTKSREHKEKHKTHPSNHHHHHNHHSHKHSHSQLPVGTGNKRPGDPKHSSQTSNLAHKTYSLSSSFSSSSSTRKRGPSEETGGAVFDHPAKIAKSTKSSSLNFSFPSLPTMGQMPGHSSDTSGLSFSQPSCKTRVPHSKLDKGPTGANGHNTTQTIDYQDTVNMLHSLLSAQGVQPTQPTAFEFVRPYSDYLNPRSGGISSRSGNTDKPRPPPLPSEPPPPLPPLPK
The test is described as follows: CDK9/CycT1 high ATP kinase assay (TR-FRET, 2 mM ATP). Type of test: biochemical. Particulars: read-out: CDK9/CyclinT1, 2 mM ATP (high ATP) IC50-[mol/l] (median). As for the experimental part:
CDK9/CycT1-inhibitory activity of compounds of the present invention at a high ATP concentration after preincubation of enzyme and test compounds was quantified employing the CDK9/CycT1 TR-FRET assay as described in the following paragraphs.
Recombinant full-length His-tagged human CDK9 and CycT1, expressed in insect cells and purified by Ni-NTA affinity chromatography, were purchased from Life Technologies (Cat. No PV4131). As substrate for the kinase reaction biotinylated peptide biotin-Ttds-YISPLKSPYKISEG (C-terminus in amide form) was used which can be purchased e.g. form the company JERINI peptide technologies (Berlin, Germany).
For the assay 50 nanoL of a 100 fold concentrated solution of the test compound in DMSO was pipetted into either a black low volume 384 well microtiter plate or a black 1536 well microtiter plate (both Greiner Bio-One, Frickenhausen, Germany), 2 microL of a solution of CDK9/CycT1 in aqueous assay buffer [50 millimol/L Tris/HCl pH 8.0, 10 millimol/L MgCl2, 1.0 millimol/L dithiothreitol, 0.1 millimol/L sodium ortho-vanadate, 0.01% (v/v) Nonidet-P40 (Sigma)] were added and the mixture was incubated for 15 min at 22° C. to allow pre-binding of the test compounds to the enzyme before the start of the kinase reaction. Then the kinase reaction was started by the addition of 3 microL of a solution of adenosine-tri-phosphate (ATP, 3.3 millimol/L=> final conc. in the 5 microL assay volume is 2 millimol/L) and substrate (1.25 micromol/L=> final conc. in the 5 microL assay volume is 0.75 micromol/L) in assay buffer and the resulting mixture was incubated for a reaction time of 25 min at 22° C. The concentration of CDK9/CycT1 was adjusted depending of the activity of the enzyme lot and was chosen appropriate to have the assay in the linear range, typical concentrations were in the range of 0.5 microg/ml. The reaction was stopped by the addition of 3 microL of a solution of TR-FRET detection reagents (0.33 micromol/L streptavidine-XL665 [Cisbio Bioassays, Codolet, France] and 1.67 nanomol/L anti-RB(pSer807/pSer8l 1)-antibody from BD Pharmingen [#558389] and 2 nanomol/L LANCE EU-W1024 labeled anti-mouse IgG antibody [Perkin-Elmer, product no. AD0077]) in an aqueous EDTA-solution (167 millimol/L EDTA, 0.2% (w/v) bovine serum albumin in 100 millimol/L HEPES pH 7.5).
The resulting mixture was incubated 1 h at 22° C. to allow the formation of complex between the phosphorylated biotinylated peptide and the detection reagents. Subsequently the amount of phosphorylated substrate was evaluated by measurement of the resonance energy transfer from the Eu-chelate to the streptavidine-XL. Therefore, the fluorescence emissions at 620 nm and 665 nm after excitation at 350 nm was measured in a TR-FRET reader, e.g. a Pherastar (BMG Labtechnologies, Offenburg, Germany) or a Viewlux (Perkin-Elmer). The ratio of the emissions at 665 nm and at […] was taken as the measure for the amount of phosphorylated substrate. The data were normalised (enzyme reaction without inhibitor=0% inhibition, all other assay components but no enzyme=100% inhibition).

For test [2], the system named is MDA-MB-231 human breast cancer cells. The test is described as follows: Proliferation assay MDA-MB-231 (crystal violet). In kind it is cell-based. Particulars: 96 h, MDA-MB-231 cells, 4 days, read-out: Prolif-MDA MB231 IC50-[mol/l] (median). As to the method: Human tumour cells were originally obtained from the American Type Culture Collection (ATCC), or from the Deutsche Sammlung von Mikroorganismen und Zellkulturen (DSMZ, German Collection of Microorganisms and Cell Cultures). Cultivated tumour cells (CAL-120, human breast adenocarcinoma cells, DSMZ ACC-459; MDA-MB-231, human breast cancer cells, ATCC HTB-26) were plated at a density of 4,000 cells/well in a 96-well multititer plate in 200 microL of their respective growth medium supplemented 10% fetal calf serum. After 24 hours, the cells of one plate (zero-point plate) were stained with crystal violet (see below), while the medium of the other plates was supplemented with the test substances in various concentrations (0 micromol/L, as well as in the range of 0.01-10 micromol/L; the final concentration of the solvent dimethyl sulfoxide was adjusted to 0.1%) using a Tecan HP D300 Digital Dispenser. The cells were incubated for 4 days in the presence of test substances. Cell proliferation was determined by staining the cells with crystal violet: the cells were fixed by adding 20 microL/measuring point of an 11% glutaric aldehyde solution for 15 minutes at room temperature. After three washing cycles of the fixed cells with water, the plates were dried at room temperature. The cells were stained by adding 100 microL/measuring point of a 0.1% crystal violet solution (pH 3.0). After three washing cycles of the stained cells with water, the plates were dried at room temperature. The dye was dissolved by adding 100 microL/measuring point of a 10% acetic acid solution. The extinction was determined by photometry at a wavelength of 595 nm. The change of cell number, in percent, was calculated by normalization of the measured values to the extinction values of the zero-point plate (=0%) and the extinction of the untreated (0 μM) cells (=100%). The IC50 values (inhibitory concentration at 50% of maximal effect) were determined by means of a 4 parameter fit.

Turning to `Brc1cnc2c(NCc3nc4ccccc4[nH]3)nc(N3CCOCC3)nn12` [Example 1, N-[(1H-benzimidazol-2-yl)methyl]-7-bromo-2-(morpholin-4-yl)imidazo[2,1-f][1,2,4]triazin-4-amine], the IC50 in test [1] was over 20000 nM; in test [2], 42 nM.
As to `N#Cc1cnc2c(NCc3nc4ccccc4[nH]3)nc(N3CCOCC3)nn12` [Example 2, 4-{[(1H-benzimidazol-2-yl)methyl]amino}-2-(morpholin-4-yl)imidazo[2,1-f][1,2,4]triazine-7-carbonitrile], the IC50 in test [1] was over 20000 nM.
The same measure, in the same setting: the figure for `Fc1cccc(-c2cnc3c(NCc4nc5ccccc5[nH]4)nc(N4CCOCC4)nn23)c1` [Example 3, N-[(1H-benzimidazol-2-yl)methyl]-7-(3-fluorophenyl)-2-(morpholin-4-yl)imidazo[2,1-f][1,2,4]triazin-4-amine] is over 20000 nM.
Consider `C[C@@H]1CN(c2nc(NCc3nc4ccccc4[nH]3)c3ncc(Br)n3n2)C[C@H](C)O1` [Example 4, N-[(1H-benzimidazol-2-yl)methyl]-7-bromo-2-[rel-(2R,6S)-2,6-dimethylmorpholin-4-yl]imidazo[2,1-f][1,2,4]triazin-4-amine], for which the IC50 in test [1] stood at 17700 nM; in test [2], 59.2 nM.
For the molecule `C[C@@H]1CN(c2nc(NCc3nc4c(F)c(F)ccc4[nH]3)c3ncc(Br)n3n2)C[C@H](C)O1` [Example 5, 7-bromo-N-[(4,5-difluoro-1H-benzimidazol-2-yl)methyl]-2-[rel-(2R,6S)-2,6-dimethylmorpholin-4-yl]imidazo[2,1-f][1,2,4]triazin-4-amine], the IC50 in test [1] turned out to be 3470 nM.
Regarding `CN1CCN(c2nc(NCc3nc4ccccc4[nH]3)c3ncc(Br)n3n2)CC1` [Example 6, N-[(1H-benzimidazol-2-yl)methyl]-7-bromo-2-(4-methylpiperazin-1-yl)imidazo[2,1-f][1,2,4]triazin-4-amine], the IC50 in test [1] was over 20000 nM; in test [2] it was 71 nM.
For `Fc1ccc2[nH]c(CNc3nc(N4CCOCC4)nn4c(Br)cnc34)nc2c1F` [Example 7, 7-bromo-N-[(4,5-difluoro-1H-benzimidazol-2-yl)methyl]-2-(morpholin-4-yl)imidazo[2,1-f][1,2,4]triazin-4-amine] the same measures were 9060 nM and 7.93 nM.
Consider `Brc1cnc2c(NCc3nc4ccccc4[nH]3)nc(N3CCNCC3)nn12` [Example 8, N-[(1H-benzimidazol-2-yl)methyl]-7-bromo-2-(piperazin-1-yl)imidazo[2,1-f][1,2,4]triazin-4-amine], for which the values for the IC50 in test [1] and in test [2] were over 20000 nM and 14.5 nM, respectively.
Take `C[C@@H]1CN(c2nc(NCc3nc4ccccc4[nH]3)c3ncc(Br)n3n2)C[C@H](C)N1` [Example 9, N-[(1H-benzimidazol-2-yl)methyl]-7-bromo-2-[rel-(3R,5S)-3,5-dimethylpiperazin-1-yl]imidazo[2,1-f][1,2,4]triazin-4-amine]: the IC50 in test [1] was over 20000 nM; in test [2], 9.6 nM.
In the case of `Fc1ccc2[nH]c(CNc3nc(N4CCNCC4)nn4c(Br)cnc34)nc2c1F` [Example 10, 7-bromo-N-[(4,5-difluoro-1H-benzimidazol-2-yl)methyl]-2-(piperazin-1-yl)imidazo[2,1-f][1,2,4]triazin-4-amine], the IC50 in test [1] turned out to be 12400 nM; in test [2] it was 2.49 nM.
On to `C[C@@H]1CN(c2nc(NCc3nc4c(F)c(F)ccc4[nH]3)c3ncc(Br)n3n2)C[C@H](C)N1` [Example 11, 7-bromo-N-[(4,5-difluoro-1H-benzimidazol-2-yl)methyl]-2-[rel-(3R,5S)-3,5-dimethylpiperazin-1-yl]imidazo[2,1-f][1,2,4]triazin-4-amine], for which the IC50 turned out to be 10800 nM in test [1] and 0.948 nM in test [2].
The corresponding values for `Fc1cccc2[nH]c(CNc3nc(N4CCOCC4)nn4c(Br)cnc34)nc12` [Example 12, 7-bromo-N-[(4-fluoro-1H-benzimidazol-2-yl)methyl]-2-(morpholin-4-yl)imidazo[2,1-f][1,2,4]triazin-4-amine] are over 20000 nM and 111 nM.
For `COc1cccc2[nH]c(CNc3nc(N4CCOCC4)nn4c(Br)cnc34)nc12` [Example 13, 7-bromo-N-[(4-methoxy-1H-benzimidazol-2-yl)methyl]-2-(morpholin-4-yl)imidazo[2,1-f][1,2,4]triazin-4-amine], the IC50 in test [1] was over 18900 nM; in test [2], 27.9 nM.
With `COc1cccc2[nH]c(CNc3nc(N4C[C@@H](C)N[C@@H](C)C4)nn4c(Br)cnc34)nc12` [Example 14, 7-bromo-2-[rel-(3R,5S)-3,5-dimethylpiperazin-1-yl]-N-[(4-methoxy-1H-benzimidazol-2-yl)methyl]imidazo[2,1-f][1,2,4]triazin-4-amine], the IC50 in test [1] is over 18100 nM; in test [2], 3.91 nM.
For `COc1cccc2[nH]c(CNc3nc(N4CCNCC4)nn4c(Br)cnc34)nc12` [Example 15, 7-bromo-N-[(4-methoxy-1H-benzimidazol-2-yl)methyl]-2-(piperazin-1-yl)imidazo[2,1-f][1,2,4]triazin-4-amine], the results for the IC50 in test [1] and in test [2] were over 20000 nM and 5.65 nM, respectively.
The corresponding values for `COc1cccc2[nH]c(CNc3nc(N4CCN(C)CC4)nn4c(Br)cnc34)nc12.O=CO` [Example 16, 7-bromo-N-[(4-methoxy-1H-benzimidazol-2-yl)methyl]-2-(4-methylpiperazin-1-yl)imidazo[2,1-f][1,2,4]triazin-4-amine Formate (1/1)] are over 20000 nM and 13.1 nM.
Turning to `OC[C@@H]1CCCCN1c1nc(NCc2nc3ccccc3[nH]2)c2ncc(Br)n2n1` [Example 17, [(2S)-1-(4-{[(1H-benzimidazol-2-yl)methyl]amino}-7-bromoimidazo[2,1-f][1,2,4]triazin-2-yl)piperidin-2-yl]methanol], in test [1], the IC50 is 4110 nM.
`C[C@@H]1CN(c2nc(NCc3nc4c(F)cccc4[nH]3)c3ncc(Br)n3n2)C[C@H](C)N1` [Example 18, 7-bromo-2-[rel-(3R,5S)-3,5-dimethylpiperazin-1-yl]-N-[(4-fluoro-1H-benzimidazol-2-yl)methyl]imidazo[2,1-f][1,2,4]triazin-4-amine]: the figures for the IC50 in test [1] and in test [2] were 14200 nM and 3.45 nM, respectively.
Turning to `C[C@@H]1CN(c2nc(NCc3nc4cc(F)ccc4[nH]3)c3ncc(Br)n3n2)C[C@H](C)N1` [Example 19, 7-bromo-2-[rel-(3R,5S)-3,5-dimethylpiperazin-1-yl]-N-[(5-fluoro-1H-benzimidazol-2-yl)methyl]imidazo[2,1-f][1,2,4]triazin-4-amine], the IC50 in test [1] is over 20000 nM; in test [2] it was 2.73 nM.
